Reference: US20260242419A1, “A CYCLIC PEPTIDE FOR TRAPPING INTERLEUKIN-1 BETA” (Merck Sharp & Dohme LLC, priority 2023, published 2026)
Starred links: 1 amine or outer side, 2 acyl side, 3 side chain; linkers in the order of their positions; H or OH if unused. Non-standard residues stand in square brackets, D forms with d. Residues, ends and D or L forms follow the SMILES beside them. 3Pal4Ph4CO2H = 4-[5-[(2S)-2-amino-2-carboxy-ethyl]-2-pyridyl]benzoic acid, O=C([C@H](Cc1ccc(-c2ccc(C(=O)[*:3])cc2)nc1)N[*:1])[*:2]; TyrEtNAc = (2S)-3-[4-(2-acetamidoethoxy)phenyl]-2-amino-propanoic acid, CC(=O)NCCOc1ccc(C[C@H](N[*:1])C(=O)[*:2])cc1; dProc3Bn = (2R,3S)-3-benzylpyrrolidine-2-carboxylic acid, O=C([C@H]1[C@@H](Cc2ccccc2)CCN1[*:1])[*:2]; 3PyridaAla = (2S)-2-amino-3-pyridazin-3-yl-propanoic acid, O=C([C@H](Cc1cccnn1)N[*:1])[*:2]; dPro(4R-(4-pyridylmethyl)) = O=C(O)[C@H]1C[C@@H](Cc2ccncc2)CN1; Trp(βS-Me,4-F) = C[C@@H](c1c[nH]c2cccc(F)c12)[C@H](N)C(=O)O; Bip(4'-CONH2) = NC(=O)c1ccc(-c2ccc(C[C@H](N)C(=O)O)cc2)cc1; Bip(4'-COOH) = N[C@@H](Cc1ccc(-c2ccc(C(=O)O)cc2)cc1)C(=O)O; Ala(1-bicyclo(1.1.1)pentyl) = N[C@@H](CC12CC(C1)C2)C(=O)O; dPro(4R-Bzl(4-F)) = O=C(O)[C@H]1C[C@@H](Cc2ccc(F)cc2)CN1; dPro(3S-(4-F-Bn)) = O=C(O)[C@@H]1NCC[C@@H]1Cc1ccc(F)cc1; X7 = Nc1cc(-c2ccc(C[C@H](N[*:1])C(=O)[*:2])cc2)ccn1; Ala(pyrimidin-5-yl) = N[C@@H](Cc1cncnc1)C(=O)O; Phe(4-CONH2) = NC(=O)c1ccc(C[C@H](N)C(=O)O)cc1; Phe(4-COOH) = N[C@@H](Cc1ccc(C(=O)O)cc1)C(=O)O; Ala(2-pyrazinyl) = N[C@@H](Cc1cnccn1)C(=O)O; Pro(cis-4-F) = O=C(O)[C@@H]1C[C@H](F)CN1; Ala(4-THP) = N[C@@H](CC1CCOCC1)C(=O)O; AEF = NCCOc1ccc(C[C@H](N)C(=O)O)cc1; d(αMeD) = C[C@@](N)(CC(=O)O)C(=O)O; 4Pal = N[C@@H](Cc1ccncc1)C(=O)O; aThr = C[C@H](O)[C@H](N)C(=O)O; d(αMeS) = C[C@@](N)(CO)C(=O)O; NMeDab = CN[C@@H](CCN)C(=O)O; Dab = NCC[C@H](N)C(=O)O; Dap = NC[C@H](N)C(=O)O; Aib = CC(C)(N)C(=O)O

B1: SEQ ID NO: 1 (peptide)
peptide: cyclo([Bip(4'-COOH)][4Pal][Phe(4-COOH)]G[Pro(cis-4-F)][Trp(βS-Me,4-F)][Aib]EW[Aib]FQSG[dProc3Bn])
SMILES: C[C@@H](c1c[nH]c2cccc(F)c12)[C@@H]1NC(=O)[C@@H]2C[C@H](F)CN2C(=O)CNC(=O)[C@H](Cc2ccc(C(=O)O)cc2)NC(=O)[C@H](Cc2ccncc2)NC(=O)[C@H](Cc2ccc(-c3ccc(C(=O)O)cc3)cc2)NC(=O)[C@H]2[C@@H](Cc3ccccc3)CCN2C(=O)CNC(=O)[C@H](CO)NC(=O)[C@H](CCC(N)=O)NC(=O)[C@H](Cc2ccccc2)NC(=O)C(C)(C)NC(=O)[C@H](Cc2c[nH]c3ccccc23)NC(=O)[C@H](CCC(=O)O)NC(=O)C(C)(C)NC1=O
B2: SEQ ID NO: 10 (peptide)
peptide: cyclo([TyrEtNAc][4Pal][Phe(4-COOH)]G[Pro(cis-4-F)][Trp(βS-Me,4-F)][Aib]EW[Aib][Ala(pyrimidin-5-yl)]Q[Dab]G[dPro(4R-Bzl(4-F))])
SMILES: CC(=O)NCCOc1ccc(C[C@@H]2NC(=O)[C@H]3C[C@@H](Cc4ccc(F)cc4)CN3C(=O)CNC(=O)[C@H](CCN)NC(=O)[C@H](CCC(N)=O)NC(=O)[C@H](Cc3cncnc3)NC(=O)C(C)(C)NC(=O)[C@H](Cc3c[nH]c4ccccc34)NC(=O)[C@H](CCC(=O)O)NC(=O)C(C)(C)NC(=O)[C@H]([C@@H](C)c3c[nH]c4cccc(F)c34)NC(=O)[C@@H]3C[C@H](F)CN3C(=O)CNC(=O)[C@H](Cc3ccc(C(=O)O)cc3)NC(=O)[C@H](Cc3ccncc3)NC2=O)cc1
B3: SEQ ID NO: 100 (peptide)
peptide: cyclo([3Pal4Ph4CO2H][Ala(1-bicyclo(1.1.1)pentyl)][Phe(4-COOH)]G[Pro(cis-4-F)][Trp(βS-Me,4-F)][Aib]EW[Aib][Dap]Q[Dab]G[dPro(4R-Bzl(4-F))])
SMILES: C[C@@H](c1c[nH]c2cccc(F)c12)[C@@H]1NC(=O)[C@@H]2C[C@H](F)CN2C(=O)CNC(=O)[C@H](Cc2ccc(C(=O)O)cc2)NC(=O)[C@H](CC23CC(C2)C3)NC(=O)[C@H](Cc2ccc(-c3ccc(C(=O)O)cc3)nc2)NC(=O)[C@H]2C[C@@H](Cc3ccc(F)cc3)CN2C(=O)CNC(=O)[C@H](CCN)NC(=O)[C@H](CCC(N)=O)NC(=O)[C@H](CN)NC(=O)C(C)(C)NC(=O)[C@H](Cc2c[nH]c3ccccc23)NC(=O)[C@H](CCC(=O)O)NC(=O)C(C)(C)NC1=O
B4: SEQ ID NO: 102 (peptide)
peptide: cyclo([Bip(4'-COOH)][4Pal][Phe(4-COOH)]G[Pro(cis-4-F)][Trp(βS-Me,4-F)][Aib]EW[Aib][3PyridaAla]Q[Dab]G[dPro(4R-Bzl(4-F))])
SMILES: C[C@@H](c1c[nH]c2cccc(F)c12)[C@@H]1NC(=O)[C@@H]2C[C@H](F)CN2C(=O)CNC(=O)[C@H](Cc2ccc(C(=O)O)cc2)NC(=O)[C@H](Cc2ccncc2)NC(=O)[C@H](Cc2ccc(-c3ccc(C(=O)O)cc3)cc2)NC(=O)[C@H]2C[C@@H](Cc3ccc(F)cc3)CN2C(=O)CNC(=O)[C@H](CCN)NC(=O)[C@H](CCC(N)=O)NC(=O)[C@H](Cc2cccnn2)NC(=O)C(C)(C)NC(=O)[C@H](Cc2c[nH]c3ccccc23)NC(=O)[C@H](CCC(=O)O)NC(=O)C(C)(C)NC1=O

molecular target: T1, IL-1β (Homo sapiens, UniProt P01584); assay: IL-6 assay in MRC5 cells: inhibition of IL-1β induced IL-6 secretion (AlphaLISA); format: cell-based; conditions: inhibition of IL-1β induced IL-6 secretion in MRC5 cells; read-out: MRC5 IC50
T1 construct: purchased BioLegend 579404
T1 sequence (P01584 117-269): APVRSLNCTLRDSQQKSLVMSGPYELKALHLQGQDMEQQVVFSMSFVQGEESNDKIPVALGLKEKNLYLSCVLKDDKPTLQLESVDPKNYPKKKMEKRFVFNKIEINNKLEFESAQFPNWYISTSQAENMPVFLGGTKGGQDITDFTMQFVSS
Summary of the method: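 Compound was pre-incubated 1 h at ambient temperature with recombinant human IL-1β at 2λ EC80 before adding human lung fibroblast MRC5 cells (3000/well) in EMEM with 0.025% BSA. After overnight culture at 37 °C, 5% CO2, secreted IL-6 in conditioned medium was measured by AlphaLISA; IC50 from 4-parameter logistic fits.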

Molecule	IC50 [nM]
CC(=O)NCCOc1ccc(C[C@@H]2NC(=O)[C@H]3C[C@@H](Cc4ccncc4)CN3C(=O)CNC(=O)[C@H](CCN)NC(=O)[C@H](CCC(N)=O)NC(=O)[C@H](CC3CCOCC3)NC(=O)[C@@](C)(CC(=O)O)NC(=O)[C@H](Cc3c[nH]c4ccccc34)NC(=O)[C@H](CO)NC(=O)C(C)(C)NC(=O)[C@H]([C@@H](C)c3c[nH]c4cccc(F)c34)NC(=O)[C@@H]3C[C@H](F)CN3C(=O)CNC(=O)[C@H](Cc3ccc(C(N)=O)cc3)NC(=O)[C@H](CC34CC(C3)C4)NC2=O)cc1 [Example 376] (cyclo([AEF](Ac)[Ala(1-bicyclo(1.1.1)pentyl)][Phe(4-CONH2)]G[Pro(cis-4-F)][Trp(βS-Me,4-F)][Aib]SW[d(αMeD)][Ala(4-THP)]Q[Dab]G[dPro(4R-(4-pyridylmethyl))]))	0.048
CC(=O)NCCOc1ccc(C[C@@H]2NC(=O)[C@H]3C[C@@H](Cc4ccncc4)CN3C(=O)CNC(=O)[C@H](CCN)NC(=O)[C@H](CCC(N)=O)NC(=O)[C@H](CC3CCOCC3)NC(=O)[C@@](C)(CC(=O)O)NC(=O)[C@H](Cc3c[nH]c4ccccc34)NC(=O)[C@H](CO)NC(=O)C(C)(C)NC(=O)[C@H]([C@@H](C)c3c[nH]c4cccc(F)c34)NC(=O)[C@@H]3C[C@H](F)CN3C(=O)CNC(=O)[C@H](Cc3ccc(C(N)=O)cc3)NC(=O)[C@H](Cc3ccncc3)NC2=O)cc1 [Example 377] (cyclo([AEF](Ac)[4Pal][Phe(4-CONH2)]G[Pro(cis-4-F)][Trp(βS-Me,4-F)][Aib]SW[d(αMeD)][Ala(4-THP)]Q[Dab]G[dPro(4R-(4-pyridylmethyl))]))	0.04
CC(=O)NCCOc1ccc(C[C@@H]2NC(=O)[C@H]3C[C@@H](Cc4ccncc4)CN3C(=O)CNC(=O)[C@H](CCN)NC(=O)[C@H](CCC(N)=O)NC(=O)[C@H](CC3CCOCC3)NC(=O)[C@@](C)(CO)NC(=O)[C@H](Cc3c[nH]c4ccccc34)NC(=O)[C@H](CO)NC(=O)C(C)(C)NC(=O)[C@H]([C@@H](C)c3c[nH]c4cccc(F)c34)NC(=O)[C@@H]3C[C@H](F)CN3C(=O)CNC(=O)[C@H](Cc3ccc(C(N)=O)cc3)NC(=O)[C@H](Cc3ccncc3)NC2=O)cc1 [Example 378] (cyclo([AEF](Ac)[4Pal][Phe(4-CONH2)]G[Pro(cis-4-F)][Trp(βS-Me,4-F)][Aib]SW[d(αMeS)][Ala(4-THP)]Q[Dab]G[dPro(4R-(4-pyridylmethyl))]))	0.043
C[C@@H](c1c[nH]c2cccc(F)c12)[C@@H]1NC(=O)[C@@H]2C[C@H](F)CN2C(=O)CNC(=O)[C@H](Cc2ccc(C(=O)O)cc2)NC(=O)[C@H](Cc2ccncc2)NC(=O)[C@H](Cc2ccc(-c3ccc(C(N)=O)cc3)cc2)NC(=O)[C@H]2[C@@H](Cc3ccc(F)cc3)CCN2C(=O)CNC(=O)[C@H](CCN)NC(=O)[C@H](CCC(N)=O)NC(=O)[C@H](Cc2cncnc2)NC(=O)[C@@](C)(CC(=O)O)NC(=O)[C@H](Cc2c[nH]c3ccccc23)NC(=O)[C@H](CO)NC(=O)C(C)(C)NC1=O [Example 379] (cyclo([Bip(4'-CONH2)][4Pal][Phe(4-COOH)]G[Pro(cis-4-F)][Trp(βS-Me,4-F)][Aib]SW[d(αMeD)][Ala(pyrimidin-5-yl)]Q[Dab]G[dPro(3S-(4-F-Bn))]))	0.016
C[C@@H](c1c[nH]c2cccc(F)c12)[C@@H]1NC(=O)[C@@H]2C[C@H](F)CN2C(=O)CNC(=O)[C@H](Cc2ccc(C(N)=O)cc2)NC(=O)[C@H](Cc2ccncc2)NC(=O)[C@H](Cc2ccc(-c3ccc(C(N)=O)cc3)cc2)NC(=O)[C@H]2[C@@H](Cc3ccc(F)cc3)CCN2C(=O)CNC(=O)[C@H](CCN)NC(=O)[C@H](CCC(N)=O)NC(=O)[C@H](Cc2cncnc2)NC(=O)[C@@](C)(CC(=O)O)NC(=O)[C@H](Cc2c[nH]c3ccccc23)NC(=O)[C@H](CO)NC(=O)C(C)(C)NC1=O [Example 380] (cyclo([Bip(4'-CONH2)][4Pal][Phe(4-CONH2)]G[Pro(cis-4-F)][Trp(βS-Me,4-F)][Aib]SW[d(αMeD)][Ala(pyrimidin-5-yl)]Q[Dab]G[dPro(3S-(4-F-Bn))]))	0.018
CCO[C@@H](C)[C@@H]1NC(=O)C(C)(C)NC(=O)[C@H](Cc2c[nH]c3ccccc23)NC(=O)[C@H](CO)NC(=O)C(C)(C)NC(=O)[C@H]([C@@H](C)c2c[nH]c3cccc(F)c23)NC(=O)[C@@H]2C[C@H](F)CN2C(=O)CNC(=O)[C@H](Cc2ccc(C(N)=O)cc2)NC(=O)[C@H](Cc2ccncc2)NC(=O)[C@H](Cc2ccc(OCCNC(C)=O)cc2)NC(=O)[C@H]2C[C@@H](Cc3ccncc3)CN2C(=O)CNC(=O)[C@H](CCN)N(C)C(=O)[C@H](CCC(N)=O)NC1=O [Example 381] (cyclo([4Pal][Phe(4-CONH2)]G[Pro(cis-4-F)][Trp(βS-Me,4-F)][Aib]SW[Aib][aThr](Et)Q[NMeDab]G[dPro(4R-(4-pyridylmethyl))][AEF](Ac)))	0.041
CCO[C@H](C)[C@@H]1NC(=O)C(C)(C)NC(=O)[C@H](Cc2c[nH]c3ccccc23)NC(=O)[C@H](CO)NC(=O)C(C)(C)NC(=O)[C@H]([C@@H](C)c2c[nH]c3cccc(F)c23)NC(=O)[C@@H]2C[C@H](F)CN2C(=O)CNC(=O)[C@H](Cc2ccc(C(N)=O)cc2)NC(=O)[C@H](Cc2ccncc2)NC(=O)[C@H](Cc2ccc(OCCNC(C)=O)cc2)NC(=O)[C@H]2C[C@@H](Cc3ccncc3)CN2C(=O)CNC(=O)[C@H](CCN)N(C)C(=O)[C@H](CCC(N)=O)NC1=O [Example 382] (cyclo([AEF](Ac)[4Pal][Phe(4-CONH2)]G[Pro(cis-4-F)][Trp(βS-Me,4-F)][Aib]SW[Aib]T(Et)Q[NMeDab]G[dPro(4R-(4-pyridylmethyl))]))	0.048
C[C@@H](c1c[nH]c2cccc(F)c12)[C@@H]1NC(=O)[C@@H]2C[C@H](F)CN2C(=O)CNC(=O)[C@H](Cc2ccc(C(=O)O)cc2)NC(=O)[C@H](Cc2ccncc2)NC(=O)[C@H](Cc2ccc(-c3ccnc(N)c3)cc2)NC(=O)[C@H]2[C@@H](Cc3ccc(F)cc3)CCN2C(=O)CNC(=O)[C@H](CCN)NC(=O)[C@H](CCC(N)=O)NC(=O)[C@H](Cc2cncnc2)NC(=O)[C@@](C)(CC(=O)O)NC(=O)[C@H](Cc2c[nH]c3ccccc23)NC(=O)[C@H](CO)NC(=O)C(C)(C)NC1=O [Example 385] (cyclo([X7][4Pal][Phe(4-COOH)]G[Pro(cis-4-F)][Trp(βS-Me,4-F)][Aib]SW[d(αMeD)][Ala(pyrimidin-5-yl)]Q[Dab]G[dPro(3S-(4-F-Bn))]))	0.023

molecular target: Recombinant human IL-1β (BioLegend 579404) (human, UniProt P01584 117-269); assay: cell-based or functional assay; conditions: not given

Molecule	MRC5 IC50 [nM]
B1	0.093
B2	0.027
B3	0.074
cyclo([Bip(4'-COOH)][4Pal][Phe(4-COOH)]G[Pro(cis-4-F)][Trp(βS-Me,4-F)][Aib]EW[Aib][Ala(2-pyrazinyl)]Q[Dab]G[dPro(4R-Bzl(4-F))]) [SEQ ID NO: 101]	0.021
B4	0.021
